Laboratory results as given in patent US9096560B2, “5-heterocyclylalkyl-3-hydroxy-2-phenylcyclopent-2-enones as herbicides” (Syngenta Limited, priority 2008, dated 2015).

Legend:
Assay type in all cases: in vivo
Lolium perenne (LOLPE) [1] = test: Example B pre-emergence herbicidal test, LOLPE; details: rate 250 g/ha, evaluated after 13 days, 100=total damage to plant, 0=no damage to plant; for pest or weed control at 250 g/ha: Lolium perenne, 312 h
Method in brief: (§1)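 After sowing in standard soil, pots spent a day in the glasshouse (24/16° C, 14 h photoperiod, 65% humidity) before spraying with compound in acetone/water 50:50 with 0.5% Tween 20. Watering followed twice a day, and plants were evaluated 13 days on, with 100 meaning complete damage.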

[2] = system: Alopecurus myosuroides (ALOMY); test: Example B pre-emergence herbicidal test, ALOMY; details: rate 250 g/ha, evaluated after 13 days, 100=total damage to plant, 0=no damage to plant; for pest or weed control at 250 g/ha: Alopecurus myosuroides, 312 h
Method in brief: as §1

[3] = system: Echinochloa crus-galli (ECHCG); test: Example B pre-emergence herbicidal test, ECHCG; details: rate 250 g/ha, evaluated after 13 days, 100=total damage to plant, 0=no damage to plant; for pest or weed control at 250 g/ha: Echinochloa crus-galli, 312 h
Method in brief: as §1

Avena fatua (AVEFA) [4] = test: Example B pre-emergence herbicidal test, AVEFA; details: rate 250 g/ha, evaluated after 13 days, 100=total damage to plant, 0=no damage to plant; for pest or weed control at 250 g/ha: Avena fatua, 312 h
Method in brief: as §1

Lolium perenne (LOLPE) [5] = test: Example B post-emergence herbicidal test, LOLPE; details: rate 250 g/ha, evaluated after 13 days; for pest or weed control at 250 g/ha: Lolium perenne, 312 h, scale 0-100, read-out: Post-emergence activity LOLPE (100=total damage to plant; 0=no damage to plant)
Method in brief: (§2)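 Plants grown 8 days in glasshouse (24/16 °C day/night, 14 h light, 65% humidity), then sprayed with aqueous solution from acetone/water (50:50) formulation with 0.5% Tween 20. Damage scored 13 days later on a 0–100 scale (100 = total damage).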

[6] = system: Alopecurus myosuroides (ALOMY); test: Example B post-emergence herbicidal test, ALOMY; details: rate 250 g/ha, evaluated after 13 days; for pest or weed control at 250 g/ha: Alopecurus myosuroides, 312 h, scale 0-100, read-out: Post-emergence activity ALOMY (100=total damage to plant; 0=no damage to plant)
Method in brief: as §2

[7] = system: Echinochloa crus-galli (ECHCG); test: Example B post-emergence herbicidal test, ECHCG; details: rate 250 g/ha, evaluated after 13 days; for pest or weed control at 250 g/ha: Echinochloa crus-galli, 312 h, scale 0-100, read-out: Post-emergence activity ECHCG (100=total damage to plant; 0=no damage to plant)
Method in brief: as §2

Avena fatua (AVEFA) [8] = test: Example B post-emergence herbicidal test, AVEFA; details: rate 250 g/ha, evaluated after 13 days; for pest or weed control at 250 g/ha: Avena fatua, 312 h, scale 0-100, read-out: Post-emergence activity AVEFA (100=total damage to plant; 0=no damage to plant)
Method in brief: as §2

Row | Structure (SMILES) | pest or weed control at 250 g/ha (Lolium perenne (LOLPE) [1]) | pest or weed control at 250 g/ha [2] | pest or weed control at 250 g/ha [3] | pest or weed control at 250 g/ha (Avena fatua (AVEFA) [4]) | pest or weed control at 250 g/ha (Lolium perenne (LOLPE) [5]) | pest or weed control at 250 g/ha [6] | pest or weed control at 250 g/ha [7] | pest or weed control at 250 g/ha (Avena fatua (AVEFA) [8]) | Pre-emergence activity LOLPE (damage to plant) (Lolium perenne (LOLPE) [1]) | Pre-emergence activity ALOMY (damage to plant) [2] | Pre-emergence activity ECHCG (damage to plant) [3] | Pre-emergence activity AVEFA (damage to plant) (Avena fatua (AVEFA) [4]) | Post-Emergence Activity LOLPE (100=total damage to plant; 0=no damage to plant) (Lolium perenne (LOLPE) [5]; scale 0-100) | Post-Emergence Activity ALOMY (100=total damage to plant; 0=no damage to plant) ([6]; scale 0-100) | Post-Emergence Activity ECHCG (100=total damage to plant; 0=no damage to plant) ([7]; scale 0-100) | Post-Emergence Activity AVEFA (100=total damage to plant; 0=no damage to plant) (Avena fatua (AVEFA) [8]; scale 0-100)
1 | Cc1cc(C)c(C2=C(OC(=O)OC(C)C)CC(CC3CCOC3)C2=O)c(C)c1 (centres unmarked) [Compound P31] | 100% | 100% | 100% | 90% | 100% | 90% | 100% | 90% | – | – | – | – | – | – | – | –
2 | Cc1cc(C)c(C2=C(OS(C)(=O)=O)C/C(=C\C3CCN(S(C)(=O)=O)C3)C2=O)c(C)c1 (centres unmarked) [Compound P46] | 90% | 70% | 100% | 60% | 80% | 90% | 70% | 90% | – | – | – | – | – | – | – | –
3 | Cc1cc(C)c(C2C(=O)CC(CC3CCN(C(=O)N4CCOCC4)CC3)C2=O)c(C)c1 (centres unmarked) [Compound T100] | 90% | 60% | 70% | 60% | 80% | 90% | 60% | 90% | – | – | – | – | – | – | – | –
4 | Cc1cc(C)c(C2C(=O)C/C(=C\C3CCN(S(C)(=O)=O)C3)C2=O)c(C)c1 (centres unmarked) [Compound T31] | 90% | 80% | 80% | 90% | 70% | 90% | 80% | 90% | – | – | – | – | – | – | – | –
5 | Cc1cc(C)c(C2=C(O)CC(CC3CCOCC3)C2=O)c(C)c1 (centres unmarked) [Compound P68] | – | – | – | – | – | – | – | – | 100 | 90 | 100 | 90 | 100 | 90 | 100 | 90
6 | Cc1cc(C)c(C2C(=O)CC(CC3CCN(C(=O)C(F)(F)C(F)F)CC3)C2=O)c(C)c1 (centres unmarked) [Compound T161] | 90% | 30% | 100% | 60% | 100% | 70% | 90% | 90% | – | – | – | – | – | – | – | –
7 | Cc1cc(C)c(C2=C(OS(=O)(=O)C3CC3)CC(CC3CCOC3)C2=O)c(C)c1 (centres unmarked) [Compound P28] | 100% | 70% | 20% | 30% | 100% | 70% | 60% | 70% | – | – | – | – | – | – | – | –
8 | Cc1cc(C)c(C2C(=O)CC(CC3CCN(C(=O)C4CCCC4)CC3)C2=O)c(C)c1 (centres unmarked) [Compound T114] | 40% | 50% | 60% | 20% | 50% | 40% | 30% | 40% | – | – | – | – | – | – | – | –
9 | CC(=O)N1CCC(/C=C2\CC(=O)C(c3c(C)cc(C)cc3C)C2=O)CC1 (centres unmarked) [Compound T15] | 100% | 70% | 100% | 100% | 100% | 100% | 100% | 100% | – | – | – | – | – | – | – | –
10 | Cc1cc(C)c(C2C(=O)C/C(=C\C3CCN(C(=O)OCc4ccccc4)CC3)C2=O)c(C)c1 (centres unmarked) [Compound T42] | 0% | 0% | 20% | 0% | 20% | 0% | 30% | 0% | – | – | – | – | – | – | – | –
